Test results reported in ChEMBL document CHEMBL1156414, “Safety and activity of the immune modulator HE2000 on the incidence of tuberculosis and other opportunistic infections in AIDS patients” (2007).
Activity calls are given as the source filed them. The calls are words filed in the database; no cut-off is given here.

What was measured:
[1] = test system: Mycobacterium tuberculosis; experiment: Reduction in incidence of Mycobacterium tuberculosis coinfection in AIDS patient at 100 mg administered intramuscularly once daily for 5 days measured 140 days postdose; format: functional, organism-based
[2] = test system: Mycobacterium tuberculosis; experiment: Reduction in incidence of Mycobacterium tuberculosis coinfection in AIDS patient at 100 mg administered intramuscularly once daily for 5 days; format: functional; parameters: scale not given: the % may be the effect or the level left
Homo sapiens = experiment: Reduction in cumulative incidence of opportunistic infections in AIDS patient at 100 mg administered intramuscularly once daily for 5 days; format: functional, organism-based

What does the source list for `C[C@]12CC[C@H](O)C[C@@H]1CC[C@@H]1[C@@H]2CC[C@]2(C)C(=O)[C@H](Br)C[C@@H]12` [16.ALPHA.-BROMOEPIANDROSTERONE]?
Activity [1]: Active; Activity [2]: 42.2%; Activity (Homo sapiens): Active
